The values that follow come from patent US4590284A, “Pineapple ketone 1'-alkoxyalkyl derivatives” (Hercules Incorporated, priority 1985, dated 1986).

The conditions of data set [1]: fragranced soaps, six months of storage; cited from earlier work.
A short description of a further data set: Water solubility. In kind it is physicochemical. The settings on record: in words.
The next data set is described as follows: physchem. The settings on record: toluene.
The conditions of data set [2]: 0 min.
Protocol: (§1) The disappearance of both compounds is measured by gas chromatography using a six foot long, one-eighth inch diameter column having 15 percent by weight polyethylene glycol with an average molecular weight of 20,000 (Carbowax-20 M, Trademark) on particles of 80 by 100 mesh diatomaceous earth (Chromasorb W, Trademark) and using helium feed at 28 cc. per minute while heating from 100° to 210° C. at 8° per minute. Ten percent solutions of each compound in toluene are stirred at equal rates in the presence of air at ambient temperatures.
The conditions of data set [3]: cited from earlier work.

Like-named read-outs stand apart in the source and are kept apart here.

Protocol for physchem: as §1

Take `CC=Cc1ccc(O)c(OC)c1` [isoeugenol]: the stability to discoloration result in data set [1] is reported as “causes discoloration”.

As for `CC=Cc1ccc(OC(C)OCC)c(OC)c1` (stereo not drawn) [1'-ethoxyethyl ether of isoeugenol], in data set [1], the stability to discoloration entry is “stable to discoloration”.

In general, share remaining refers to the share of the starting amount still present when the sample was taken. Low values mean more turnover, high ones less turnover. For orientation: half-life means the time needed for the level to fall by half in the phase considered. As for `CC1=C(O)C(=O)C(C)O1` (stereo not drawn) [Pineapple Ketone, 2,5-dimethyl-4-hydroxy-3(2H)-furanone], the water solubility entry in the data set “Water solubility” was “water soluble”. In the data set “physchem”, this molecule displayed a fraction remaining at 15 h of 24%, a fraction remaining at 41 h of 18%, an amount remaining at 115 h of 6% and a fraction remaining at 138 h of 4%. The “% Remaining” value in data set [2] worked out at 100%. Also, in data set [3] (pH 4), the half-life was 120 days. The half-life in data set [3] (pH 7) is 12 days.

In the case of `CCOC(C)OC1=C(C)OC(C)C1=O` (stereo not drawn) [2,5-Dimethyl-4-[(1'-ethoxy)ethoxy]-3(2H)-furanone], in “physchem”, the fraction remaining at 17 h was 95%, the fraction remaining at 41 h is 93%, the fraction remaining at 116 h was 44% and the fraction remaining at 137 h was found to be 38%. Also, in data set [2], the “% Remaining” value came to 100%.
